Experimental data published in patent publication US20060167109A1, “Methods of reducing rhinovirus contagion and related compositions” (priority 2002, published 2006).
“And” between values parts separate entries of the source, which are not always exact repeats. Identical values can stand only once.

What was measured:
[1] = tested on: HRV serotype 100; assay: HRV cytopathic effect assay; format: cell-based; settings: Human rhinovirus sp.
Description: (§1) For sensitivity testing to pleconaril, the appropriate cells were seeded into 96 well plates at a concentration of 4×10^4/well. After an overnight incubation at 37° C., the medium was removed and the cells were infected with 150 μL of a dilution of virus previously titrated to give ≧85% lysis of the monolayer after 3 days of incubation. The plates were incubated for 1 hour at the appropriate temperature and then overlaid with 50 μL of medium containing serial 2-fold dilutions of pleconaril in 2% DMSO. The final DMSO concentration in the assay was always 0.5%. No virus and no pleconaril controls were included on each plate. All drug concentrations were run in quadruplicate. The plates were then incubated for 3 days at the appropriate temperature followed by processing as described above.

[2] = tested on: HRV serotype 21; assay: HRV cytopathic effect assay; format: cell-based; settings: Human rhinovirus sp.
Description: as §1

[3] = tested on: HRV serotype 24; assay: HRV cytopathic effect assay; format: cell-based; settings: Human rhinovirus sp.
Description: as §1

[4] = tested on: HRV serotype 37; assay: HRV cytopathic effect assay; format: cell-based; settings: Human rhinovirus sp.
Description: as §1

[5] = tested on: HRV serotype 4; assay: HRV cytopathic effect assay; format: cell-based; settings: Human rhinovirus sp.
Description: as §1

[6] = tested on: HRV serotype 59; assay: HRV cytopathic effect assay; format: cell-based; settings: Human rhinovirus sp.
Description: as §1

[7] = tested on: HRV serotype 68; assay: HRV cytopathic effect assay; format: cell-based; settings: Human rhinovirus sp.
Description: as §1

[8] = tested on: HRV serotype 73; assay: HRV cytopathic effect assay; format: cell-based; settings: Human rhinovirus sp.
Description: as §1

[9] = tested on: HRV serotype 77; assay: HRV cytopathic effect assay; format: cell-based; settings: Human rhinovirus sp.
Description: as §1

[10] = tested on: HRV serotype 84; assay: HRV cytopathic effect assay; format: cell-based; settings: Human rhinovirus sp.
Description: as §1

[11] = tested on: dengue virus type 2, strain New Guinea (DEN-2); assay: Virus cytopathic effect assay for other viruses; format: cell-based; settings: Vero
Description: (§2) The sensitivity of non-picornaviruses to pleconaril was determined in virus cytopathic effect assays similar to the HRV assay for the following viruses: respiratory syncytial virus, strain Long (RSV-A) and herpes simplex virus type II, strain Curtis (HSV-2) on HEp2 cells; influenza virus, strain WSN (FLUA) on MDBK cells; dengue virus type 2, strain New Guinea (DEN-2), and measles virus, strain Edmonston (MeV) on Vero cells; human adenovirus, type 5 (HAdV-5) on HeLa cells (at 33° C.); human coronavirus, strain 229E (Corona) on MRC-5 cells (at 33° C.); and mumps virus, strain Enders (Mumps), reovirus type 1, strain Lang (REOV-1), and parainfluenza virus type 3, strain C243 (HPIV-3) on LLC-MK2d cells. All specificity assays were performed at 37° C. and 5% CO2 except where noted above.

[12] = tested on: herpes simplex virus type II, strain Curtis (HSV-2); assay: Virus cytopathic effect assay for other viruses; format: cell-based; settings: Human alphaherpesvirus 2, HEp-2
Description: as §2

[13] = tested on: human adenovirus, type 5 (HAdV-5); assay: Virus cytopathic effect assay for other viruses; format: cell-based; settings: Human mastadenovirus C, HeLa
Description: as §2

[14] = tested on: human coronavirus, strain 229E (Corona); assay: Virus cytopathic effect assay for other viruses; format: cell-based; settings: Human coronavirus 229E, MRC5; Corona on MRC-5 cells at 33° C.
Description: as §2

[15] = tested on: influenza virus, strain WSN (FLUA); assay: Virus cytopathic effect assay for other viruses; format: cell-based; settings: unidentified influenza virus, MDBK
Description: as §2

[16] = tested on: measles virus, strain Edmonston (MeV); assay: Virus cytopathic effect assay for other viruses; format: cell-based; settings: Measles morbillivirus, Vero
Description: as §2

[17] = tested on: mumps virus, strain Enders (Mumps); assay: Virus cytopathic effect assay for other viruses; format: cell-based; settings: Mumps orthorubulavirus
Description: as §2

[18] = tested on: parainfluenza virus type 3, strain C243 (HPIV-3); assay: Virus cytopathic effect assay for other viruses; format: cell-based; settings: Human respirovirus 3
Description: as §2

[19] = tested on: reovirus type 1, strain Lang (REOV-1); assay: Virus cytopathic effect assay for other viruses; format: cell-based; settings: Mammalian orthoreovirus 1
Description: as §2

[20] = tested on: respiratory syncytial virus, strain Long (RSV-A); assay: Virus cytopathic effect assay for other viruses; format: cell-based; settings: human respiratory syncytial virus, HEp-2
Description: as §2

[21] = Cell toxicity (MTT) assay of cell growth; settings: human, HeLa (WIS) cells; methyltetrazolium dye-based assay of cell growth
Description: To properly evaluate antiviral activity in cell culture assays, the 50% cytotoxic concentration (CC50) of the test compound was first determined so that any inhibitory effects on virus replication could be distinguished from effects due to compound cytotoxicity. The CC50 of pleconaril was determined using a methyltetrazolium dye-based assay of cell growth (Pevear, et al., 1999, Antimicrob. Agents Chemother., 43, 2109-2115).
Pleconaril was solubilized in dimethyl sulfoxide (DMSO). After dilution to the desired drug concentration, the final DMSO concentration in assays was 0.25%.

[22] = tested on: HRV, four serotypes; assay: Virus yield reduction assay, single cycle of growth; format: cell-based, human rhinovirus; settings: all four viruses, nontoxic drug concentrations, MOI 1, 12 hours
Description: To assess the inhibition by pleconaril of HRV production from a single cycle of virus replication, virus yield experiments were performed. Cells were infected at a multiplicity of infection (MOI) of 1 infectious virion per cell with virus that had been pre-treated with pleconaril at various drug concentrations. After 12 hours of infection (a single replication cycle), the amount of virus produced was quantified. Pleconaril inhibited virus production in a concentration dependent manner. The yield of progeny virus was reduced by >99% for all four viruses at nontoxic drug concentrations.
Virus was pretreated with various concentrations of pleconaril for 1 hour at 4° C. Confluent, 1-day-old monolayers of Hela (WIS) cells in 6 well plates were infected with virus at a multiplicity of infection (MOI) of approximately 1 plaque-forming unit per cell. After a 1 hour attachment period at 33° C., the inoculum was removed, the monolayers were washed 3 times with Dulbeccos modified phosphate buffer (DPBS)(JRH Biosciences, Lenexa, Kans.) and overlaid with 3 ml of media containing either the appropriate concentration of pleconaril or drug solvent (0.25% DMSO) alone. Incubation was continued for 12 hours at 33° C. and 2.5% CO2. All plates were frozen/thawed 3 times at −80° C. prior to quantification of virus yield in the virus cytopathic effect assay.

[23] = tested on: 101 serotypes of HRVs; assay: Spectrum of activity in HRV cytopathic effect assay
Description: HRV stocks were grown in HeLa (WIS) cells in 150 cm^2 flasks, frozen/thawed 3 times, aliquoted and stored frozen at −80° C. The virus inoculum to be used in the assay for each virus was determined as follows. HeLa (WIS) cells were seeded on 96-well tissue culture plates (Costar, 3598) at a density of 2.8×10^4 cells/well in M199 medium (Sigma) supplemented with 5% heat-inactivated newborn bovine serum. Twenty-four hours later, serial 0.5 log10 dilutions of each virus stock were plated in octuplicate onto the cells in complete M199 medium (5% heat-inactivated fetal bovine serum (FBS), 0.15 mM MgCl2, and 7.5 μg/mL diethylamino-dextran (DEAE-dextran)). The plates were incubated for 3 days at 33° C. in a humidified, 2.5% CO2 atmosphere, then fixed with 5% glutaraldehyde and stained with 0.1% crystal violet. After rinsing and drying, the optical density of the wells was read at a wavelength of 570 nm (OD570) on a Bio-Tek model EL-310 plate reader.

## Cc1cc(CCCOc2c(C)cc(-c3noc(C(F)(F)F)n3)cc2C)on1 [pleconaril, 3-[3,5-dimethyl-4-[3-(3-methyl-5-isoxazolyl)propoxy]phenyl]-5-(trifluoromethyl)-1,2,4-oxadiazole]
[1]
  IC50: 30 ± 10 nM
[2]
  IC50: 40 ± 10 nM
[3]
  IC50: 210 ± 20 nM
[4]
  IC50: 60 ± 20 nM
[5]
  IC50: > 12500 nM
[6]
  IC50: 780 ± 340 nM
[7]
  IC50: 30 ± 20 nM
[8]
  IC50: 210 ± 90 nM
[9]
  IC50: 550 ± 290 nM
[10]
  IC50: > 12500 nM
[11]
  IC50: > 12500 nM
[12]
  IC50: > 12500 nM
[13]
  IC50: > 12500 nM
[14]
  IC50: > 12500 nM
[15]
  IC50: > 12500 nM
[16]
  IC50: > 12500 nM
[17]
  IC50: > 12500 nM
[18]
  IC50: > 12500 nM
[19]
  IC50: > 12500 nM
[20]
  IC50: > 12500 nM
[21]
  CC50: 12500 to 25000 nM
[22]
  reduction of yield of progeny virus: > 99%
[23]; Human rhinovirus sp., read-out: MIC50 (concentration inhibiting 50% of the HRV serotypes)
  MIC50: ≤ 0.2 µM and ≤ 0.08 µg/mL
[23]; Human rhinovirus sp., read-out: MIC80 (concentration inhibiting 80% of the HRV serotypes)
  MIC80: ≤ 0.78 µM and ≤ 0.3 µg/mL
[23]; Human rhinovirus sp., read-out: MIC90 (concentration inhibiting 90% of the HRV serotypes)
  MIC90: ≤ 4.3 µM and ≤ 1.6 µg/mL
[23]; of 101 prototypic serotypes
  HRVs whose replication was inhibited: 93 of 101
